Reference: US20220380370A1 (Goldfinch Bio, Inc., priority 2019, published 2022)

Experiments:
CB1 receptor = target: T1, CB1 receptor (Homo sapiens, UniProt P21554); experiment: CB1 cAMP antagonist assay (LANCE Ultra cAMP kit); format: cell-based; conditions: CHO cells stably expressing the CB1 receptor; forskolin and agonist CP55940 at EC90
T1 construct: Perkin Elmer (CB1-CHO cells); host or cells: Flp-In CHO cells or CB1-CHO cells, stably expressing
From the text: (§1) LANCE Ultra cAMP kit (Perkin Elmer) was used to quantitate the amount of 3′,5′-cyclic adenosine monophosphate (cAMP) produced in Flp-In CHO cells (Invitrogen) stably expressing the CB1 receptor, CB1-CHO cells (Perkin Elmer) stably expressing the CB1 receptor, or CB2-CHO cells (Perkin Elmer) stably expressing the CB2 receptor.
(§2) Forskolin was initially titrated to determine the response of the cells. The EC90 of forskolin was used for compound testing. CP55940 was titrated and used with EC90 of forskolin to determine the level of agonist stimulation. EC90 of the agonist was used for subsequent compound testing. For the CB1 assay, Forskolin (Sigma), CP55940 (Cayman Chemicals), and AM251 (MCE) were diluted in 100% DMSO, starting at 100 mM, 1 mM, and 1 mM respectively, in 3-fold serial dilutions. For the CB2 assay, Forskolin (Sigma), CP55940 (Cayman Chemicals), and AM630 (MCE) were diluted in 100% DMSO, starting at 100 mM, 1 mM, and 30 mM respectively, in 3-fold serial dilutions. Test compounds were diluted in 100% DMSO starting from 10 mM, 3-fold dilutions. The cAMP assay buffer contains 1× Hank's Buffered Saline Solution with Ca^2+ and Mg^2+ (Invitrogen), 5.3 mM HEPES (Invitrogen), 0.05% BSA, 0.5 mM IBMX (Sigma). For all assays, cells were harvested, counted, and diluted in cAMP assay buffer to 1×10^5 cells/mL. Only cells with viability >85% were used for the assay. Cells were seeded at 1000 cells/well in 384-well plates and 10 nL/well AM251 (for CB1), AM630 (for CB2) or test compound was added and incubated at 37° C. for 10 min. Then forskolin and agonist were added to reach their EC90 and incubated at 25° C. for 30 min. To detect the amount of cAMP produced, 5 μL of a 100× diluted stock of Eu-cAMP tracer and 5 μL of 200× diluted stock of Ulight-anti-cAMP were added to each well, and the plate incubated at 25° C. for 15 min. The FRET signal was read using an EnVision microplate reader (λex=320 nm, λem=615 nm and 665 nm). The results are expressed as % Inhibition, where % inhibition=100−100×(U−C2)/(C1−C2), where U is the FRET ratio (λem (665 nm)/λem (615 nm)) of sample, C1 is the average of the high controls (signal with no antagonist added), and C2 is the average of low controls (signal with the highest concentration of AM251 or AM630 antagonist). The IC50 is determined by fitting the percentage of inhibition as a function of compound concentrations with the Hill equation, using a 4-parameter fit in either XLfit or GraphPad Prism.

CB2 receptor = target: T2, CB2 receptor (Homo sapiens, UniProt P34972); experiment: CB2 cAMP antagonist assay (LANCE Ultra cAMP kit); format: cell-based; conditions: CB2-CHO cells stably expressing the CB2 receptor; forskolin and agonist CP55940 at EC90
T2 construct: host or cells: CB2-CHO cells, stably expressing
T2 sequence (P34972 whole entry): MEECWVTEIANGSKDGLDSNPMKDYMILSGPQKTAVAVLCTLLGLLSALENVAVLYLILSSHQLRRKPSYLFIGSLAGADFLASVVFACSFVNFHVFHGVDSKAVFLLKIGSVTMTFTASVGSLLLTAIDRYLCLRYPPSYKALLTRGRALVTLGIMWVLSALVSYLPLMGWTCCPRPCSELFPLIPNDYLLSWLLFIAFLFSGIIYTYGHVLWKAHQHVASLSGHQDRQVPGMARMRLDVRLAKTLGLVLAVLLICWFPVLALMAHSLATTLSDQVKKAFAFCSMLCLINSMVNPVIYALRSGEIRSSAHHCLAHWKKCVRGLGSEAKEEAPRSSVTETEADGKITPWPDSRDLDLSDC
From the text: as §1, §2

T1 sequence (P21554 whole entry): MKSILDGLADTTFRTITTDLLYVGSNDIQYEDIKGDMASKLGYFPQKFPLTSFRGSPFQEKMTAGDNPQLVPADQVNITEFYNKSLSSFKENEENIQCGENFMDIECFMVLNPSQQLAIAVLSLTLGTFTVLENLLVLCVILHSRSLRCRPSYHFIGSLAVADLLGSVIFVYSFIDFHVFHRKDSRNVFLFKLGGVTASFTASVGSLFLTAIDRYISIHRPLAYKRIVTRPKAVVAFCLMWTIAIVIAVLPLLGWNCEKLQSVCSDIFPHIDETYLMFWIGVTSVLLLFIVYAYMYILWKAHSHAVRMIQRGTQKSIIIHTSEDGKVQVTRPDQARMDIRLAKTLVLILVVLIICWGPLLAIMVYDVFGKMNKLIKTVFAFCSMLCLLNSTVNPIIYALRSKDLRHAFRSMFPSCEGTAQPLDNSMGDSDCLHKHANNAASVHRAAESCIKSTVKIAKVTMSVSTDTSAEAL

Structure (SMILES)	IC50 (CB1 receptor)	IC50 (CB2 receptor)
CC(c1ccc(C(N)=O)cc1)n1c(=O)n(C[C@@H](O)CO)c(=O)c2c1nc(-c1ccccc1Cl)n2-c1ccc(Cl)cc1 (stereo in doubt) [Compound 150, 4-[(1S)-1-[8-(2-chlorophenyl)-7-(4-chlorophenyl)-1-[(2R)-2,3-dihydroxypropyl]-2,6-dioxopurin-3-yl]ethyl]benzamide]	< 0.1 µM	≥ 5 µM
O=c1[nH]c(=O)n(C2CCCCC2)c2nc(-c3ccccc3Cl)n(-c3ccc(Cl)cc3)c12 [Compound 100]	< 0.1 µM	≥ 5 µM
COCCn1c(=O)c2c(nc(-c3ccccc3Cl)n2-c2ccc(Cl)cc2)n(C2CCCCC2)c1=O [Compound 101]	< 0.1 µM	≥ 5 µM
Cn1c(=O)c2c(nc(-c3ccccc3Cl)n2-c2ccc(Cl)cc2)n(C2CCCCC2)c1=O [Compound 103]	< 0.1 µM	≥ 5 µM
O=c1c2c(nc(-c3ccccc3Cl)n2-c2ccc(Cl)cc2)n(C2CCCCC2)c(=O)n1CCO [Compound 104, 8-(2-chlorophenyl)-7-(4-chlorophenyl)-3-cyclohexyl-1-(2-hydroxyethyl)-2,3,6,7-tetrahydro-1H-purine-2,6-dione]	< 0.1 µM	≥ 5 µM
O=c1c2c(nc(-c3ccccc3Cl)n2-c2ccc(Cl)cc2)n(C2CCCCC2)c(=O)n1CCCO [Compound 105]	< 0.1 µM	≥ 5 µM
NC(=O)Cn1c(=O)c2c(nc(-c3ccccc3Cl)n2-c2ccc(Cl)cc2)n(C2CCCCC2)c1=O [Compound 106]	< 0.1 µM	≥ 5 µM
Cn1c(=O)c2c(nc(-c3ccccc3Cl)n2-c2ccc(Cl)cc2)n(Cc2ccc(C(=O)NCCO)cc2)c1=O [Compound 112]	< 0.1 µM	≥ 5 µM
Cn1c(=O)c2c(nc(-c3ccccc3Cl)n2-c2ccc(Cl)cc2)n(Cc2ccc(C(N)=O)cc2)c1=O [Compound 114]	< 0.1 µM	≥ 5 µM
NC(=O)Cn1c(=O)c2c(nc(-c3ccccc3Cl)n2-c2ccc(Cl)cc2)n(CC2CCOCC2)c1=O [Compound 125, 2-[8-(2-chlorophenyl)-7-(4-chlorophenyl)-3-(oxan-4-ylmethyl)-2,6-dioxopurin-1-yl]acetamide]	< 0.1 µM	≥ 5 µM
C[C@H](c1ccc(C(=O)NCCO)cc1)n1c(=O)n(C)c(=O)c2c1nc(-c1ccccc1Cl)n2-c1ccc(Cl)cc1 [Compound 131]	< 0.1 µM	≥ 5 µM
NC(=O)c1ccc(Cn2c(=O)n(C[C@@H](O)CO)c(=O)c3c2nc(-c2ccccc2Cl)n3-c2ccc(Cl)cc2)cc1 [Compound 132, 4-[[8-(2-chlorophenyl)-7-(4-chlorophenyl)-1-[(2R)-2,3-dihydroxypropyl]-2,6-dioxopurin-3-yl]methyl]benzamide]	< 0.1 µM	≥ 5 µM
Cn1c(=O)c2c(nc(-c3ccccc3Cl)n2-c2ccc(Cl)cc2)n(Cc2ccc(S(N)(=O)=O)cc2)c1=O [Compound 135, 4-[[8-(2-chlorophenyl)-7-(4-chlorophenyl)-1-methyl-2,6-dioxopurin-3-yl]methyl]benzenesulfonamide]	< 0.1 µM	≥ 5 µM
NC(=O)Cn1c(=O)c2c(nc(-c3ccccc3Cl)n2-c2ccc(Cl)cc2)n(CC2CCS(=O)(=O)CC2)c1=O [Compound 136, 2-[8-(2-chlorophenyl)-7-(4-chlorophenyl)-3-[(1,1-dioxo-1λ^6-thian-4-yl)methyl]-2,6-dioxopurin-1-yl]acetamide]	< 0.1 µM	≥ 5 µM
Cn1c(=O)c2c(nc(-c3ccccc3Cl)n2-c2ccc(Cl)cc2)n(Cc2ccc(S(N)(=O)=O)cn2)c1=O [Compound 159, 6-[[8-(2-chlorophenyl)-7-(4-chlorophenyl)-1-methyl-2,6-dioxopurin-3-yl]methyl]pyridine-3-sulfonamide]	< 0.1 µM	≥ 5 µM
Cn1c(=O)c2c(nc(-c3ccccc3Cl)n2-c2ccc(Cl)cc2)n(Cc2ccc(S(=O)(=O)NCCO)cn2)c1=O [Compound 164, 6-[[8-(2-chlorophenyl)-7-(4-chlorophenyl)-1-methyl-2,6-dioxopurin-3-yl]methyl]-N-(2-hydroxyethyl)pyridine-3-sulfonamide]	< 0.1 µM	≥ 5 µM
Cn1c(=O)c2c(nc(-c3ccccc3Cl)n2-c2ccc(Cl)cc2)n(Cc2ccc(C(=O)NC3CCOCC3)cn2)c1=O [Compound 165]	< 0.1 µM	≥ 5 µM
CS(=O)(=O)N1CCC(Cn2c(=O)n(CC(N)=O)c(=O)c3c2nc(-c2ncccc2Cl)n3-c2ccc(Cl)cc2)CC1 [Compound 170, 2-[7-(4-chlorophenyl)-8-(3-chloropyridin-2-yl)-3-[(1-methanesulfonylpiperidin-4-yl)methyl]-2,6-dioxopurin-1-yl]acetamide]	< 0.1 µM	≥ 5 µM
Cn1nccc1-c1nc2c(c(=O)n(C)c(=O)n2Cc2ccc(S(N)(=O)=O)cc2)n1-c1ccc(Cl)cc1 [Compound 181]	< 0.1 µM	–
Cn1nccc1-c1nc2c(c(=O)n(C)c(=O)n2Cc2ccc(S(N)(=O)=O)cn2)n1-c1ccc(Cl)cc1 [Compound 182, 6-[[7-(4-chlorophenyl)-1-methyl-8-(2-methylpyrazol-3-yl)-2,6-dioxopurin-3-yl]methyl]pyridine-3-sulfonamide]	0.1 to 1 µM	–
